# Laboratory results: patent publication US7557268B1, “Promoter for expression of a gene and response to infection or wounding” (priority 1999, dated 2009)
# System: pAG2339 promoter deletion (gus reporter) in PR8-2, PR8-3, PR8-12
# Type: cell-based, tobacco
smiles,measurement,value
"O=C(O)c1ccccc1O [SA, salicylic acid]",change of reporter gene activity (in words),no significant change
